Laboratory results published in ChEMBL document CHEMBL5634141 (Eur J Med Chem, 2023).

How the values were obtained:
NCI-H358 [1] = assay: Antiproliferative activity against human NCI-H358 cells expressing KRAS G12C mutant assessed as inhibition of cell growth incubated for 72 hrs by CCK-8 assay; assay type: functional, cell-based; conditions: NCI-H358, 72 h
ASPC1 = assay: Antiproliferative activity against human ASPC1 cells expressing KRAS G12D mutant assessed as inhibition of cell growth incubated for 72 hrs by CCK-8 assay; assay type: functional, cell-based; conditions: ASPC1, 72 h
MIA PaCa-2 [2] = assay: Antiproliferative activity against human MIA PaCa-2 cells expressing KRAS G12C mutant assessed as inhibition of cell growth incubated for 72 hrs by CCK-8 assay; assay type: functional, cell-based; conditions: MIA PaCa-2, 72 h
[3] = Cytotoxicity against HEK293T cells assessed as inhibition of cell growth incubated for 72 hrs by CCK-8 assay; assay type: toxicity, cell-based, HEK-293T; conditions: human
HepG2 = assay: Antiproliferative activity against human HepG2 cells expressing KRAS assessed as inhibition of cell growth incubated for 72 hrs by CCK-8 assay; assay type: functional, cell-based; conditions: HepG2, 72 h
MIA PaCa-2 [4] = assay: Antiproliferative activity against human MIA PaCa-2 cells expressing KRAS G12C mutant assessed as relative cell viability at 100 nM incubated for 72 hrs by CCK-8 assay; assay type: functional; conditions: read-out: Activity
NCI-H358 [5] = assay: Antiproliferative activity against human NCI-H358 cells expressing KRAS G12C mutant assessed as relative cell viability at 100 nM incubated for 72 hrs by CCK-8 assay; assay type: functional; conditions: read-out: Activity
NCI-H23 [6] = assay: Antiproliferative activity against human NCI-H23 cells expressing KRAS G12C mutant assessed as relative cell viability at 100 nM incubated for 72 hrs by CCK-8 assay; assay type: functional; conditions: read-out: Activity
Calu-1 [7] = assay: Antiproliferative activity against human Calu-1 cells expressing KRAS G12C mutant assessed as relative cell viability at 100 nM incubated for 72 hrs by CCK-8 assay; assay type: functional; conditions: read-out: Activity
SW837 [8] = assay: Antiproliferative activity against human SW837 cells expressing KRAS G12C mutant assessed as relative cell viability at 100 nM incubated for 72 hrs by CCK-8 assay; assay type: functional; conditions: read-out: Activity
MIA PaCa-2 [9] = assay: Antiproliferative activity against human MIA PaCa-2 cells expressing KRAS G12C mutant assessed as relative cell viability at 50 nM incubated for 72 hrs by CCK-8 assay; assay type: functional; conditions: read-out: Activity
NCI-H358 [10] = assay: Antiproliferative activity against human NCI-H358 cells expressing KRAS G12C mutant assessed as relative cell viability at 50 nM incubated for 72 hrs by CCK-8 assay; assay type: functional; conditions: read-out: Activity
NCI-H23 [11] = assay: Antiproliferative activity against human NCI-H23 cells expressing KRAS G12C mutant assessed as relative cell viability at 50 nM incubated for 72 hrs by CCK-8 assay; assay type: functional; conditions: read-out: Activity
Calu-1 [12] = assay: Antiproliferative activity against human Calu-1 cells expressing KRAS G12C mutant assessed as relative cell viability at 50 nM incubated for 72 hrs by CCK-8 assay; assay type: functional; conditions: read-out: Activity
SW837 [13] = assay: Antiproliferative activity against human SW837 cells expressing KRAS G12C mutant assessed as relative cell viability at 50 nM incubated for 72 hrs by CCK-8 assay; assay type: functional; conditions: read-out: Activity

## C=CC(=O)N1CCN(c2nc(=O)n(-c3c(C)ccnc3C(C)C)c3nc(-c4c(F)cccc4OCCOCC(=O)Nc4cccc5c4CN(C4CCC(=O)NC4=O)C5=O)c(F)cc23)[C@@H](C)C1 (stereo not given in full)
NCI-H358 [1]
  IC50: 631 nM
ASPC1
  IC50: > 10000 nM
MIA PaCa-2 [2]
  IC50: 434 nM
[3]
  IC50 at 72 h: > 10000 nM
HepG2
  IC50: > 10000 nM

## C=CC(=O)N1CCN(c2nc(=O)n(-c3c(C)ccnc3C(C)C)c3nc(-c4c(F)cccc4OCCN4CCN(CCCC(=O)N[C@H](C(=O)N5C[C@H](O)C[C@H]5C(=O)NCc5ccc(-c6scnc6C)cc5)C(C)(C)C)CC4)c(F)cc23)[C@@H](C)C1
NCI-H358 [1]
  IC50: 233 nM
ASPC1
  IC50: > 10000 nM
MIA PaCa-2 [2]
  IC50: 337 nM
[3]
  IC50 at 72 h: > 10000 nM
HepG2
  IC50: > 10000 nM

## CCN1CCN(c2ccc(Nc3cc(N(C)C(=O)Nc4c(Cl)c(OC)cc(OC)c4Cl)ncn3)cc2)CC1 [INFIGRATINIB]
MIA PaCa-2 [4]
  viability at 0.1 µM: 0.84%
NCI-H358 [5]
  viability at 0.1 µM: 0.88%
NCI-H23 [6]
  viability at 0.1 µM: 0.89%
Calu-1 [7]
  viability at 0.1 µM: 0.86%
SW837 [8]
  viability at 0.1 µM: 0.85%

## Cn1c(=O)n(-c2ccc(C(C)(C)C#N)cc2)c2c3cc(-c4cnc5ccccc5c4)ccc3ncc21 [DACTOLISIB]
MIA PaCa-2 [9]
  viability at 0.05 µM: 0.7%
NCI-H358 [10]
  viability at 0.05 µM: 0.77%
NCI-H23 [11]
  viability at 0.05 µM: 0.79%
Calu-1 [12]
  viability at 0.05 µM: 0.88%
SW837 [13]
  viability at 0.05 µM: 0.82%

## C=CC(=O)N1CCN(c2nc(=O)n(-c3c(C)ccnc3C(C)C)c3nc(-c4c(F)cccc4OCc4cn(CCCC(=O)N[C@H](C(=O)N5C[C@H](O)C[C@H]5C(=O)NCc5ccc(-c6scnc6C)cc5)C(C)(C)C)nn4)c(F)cc23)[C@@H](C)C1
NCI-H358 [1]
  IC50: 368 nM
ASPC1
  IC50: > 10000 nM
MIA PaCa-2 [2]
  IC50: 491 nM
[3]
  IC50 at 72 h: > 10000 nM
HepG2
  IC50: > 10000 nM

## C=CC(=O)N1CCN(c2nc(=O)n(-c3c(C)ccnc3C(C)C)c3nc(-c4c(F)cccc4OCCN4CCN(CCC(=O)N[C@H](C(=O)N5C[C@H](O)C[C@H]5C(=O)NCc5ccc(-c6scnc6C)cc5)C(C)(C)C)CC4)c(F)cc23)[C@@H](C)C1
NCI-H358 [1]
  IC50: 253 nM
ASPC1
  IC50: > 10000 nM
MIA PaCa-2 [2]
  IC50: 172 nM
[3]
  IC50 at 72 h: > 10000 nM
HepG2
  IC50: > 10000 nM

## NC1(c2ccc(-c3nc4ccn5c(=O)[nH]nc5c4cc3-c3ccccc3)cc2)CCC1 [MK-2206]
MIA PaCa-2 [4]
  viability at 0.1 µM: 0.92%
NCI-H358 [5]
  viability at 0.1 µM: 0.88%
NCI-H23 [6]
  viability at 0.1 µM: 0.85%
Calu-1 [7]
  viability at 0.1 µM: 0.82%
SW837 [8]
  viability at 0.1 µM: 0.84%

## C=CC(=O)N1CCN(c2nc(=O)n(-c3c(C)ccnc3C(C)C)c3nc(-c4c(F)cccc4OCc4cn(CCC(=O)N[C@H](C(=O)N5C[C@H](O)C[C@H]5C(=O)NCc5ccc(-c6scnc6C)cc5)C(C)(C)C)nn4)c(F)cc23)[C@@H](C)C1
NCI-H358 [1]
  IC50: 222 nM
ASPC1
  IC50: > 10000 nM
MIA PaCa-2 [2]
  IC50: 200 nM
[3]
  IC50 at 72 h: > 10000 nM
HepG2
  IC50: > 10000 nM

## C=CC(=O)N1CCN(c2nc(=O)n(-c3c(C)ccnc3C(C)C)c3nc(-c4c(F)cccc4OCc4cn(CCCCCC(=O)N[C@H](C(=O)N5C[C@H](O)C[C@H]5C(=O)NCc5ccc(-c6scnc6C)cc5)C(C)(C)C)nn4)c(F)cc23)[C@@H](C)C1
NCI-H358 [1]
  IC50: 289 nM
ASPC1
  IC50: > 10000 nM
MIA PaCa-2 [2]
  IC50: 481 nM
[3]
  IC50 at 72 h: > 10000 nM
HepG2
  IC50: > 10000 nM
